According to patent US20250228239A1, “MOLECULES HAVING PESTICIDAL UTILITY, AND INTERMEDIATES, COMPOSITIONS, AND PROCESSES, RELATED THERETO” (priority 2024, published 2025):

Assays:
Assay type in all cases: in vivo
[1] = tested on: Beet Armyworm (Spodoptera exigua, LAPHEG); assay: Bioassays on Beet Armyworm (BAW), 128-well diet tray assay; conditions: Spodoptera exigua; Beet Armyworm; rating class; read-out: BAW
Summary of the method: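 Larvae at second instar are exposed on dried, compound-treated diet (50 μg/cm^2, delivered in 90:10 acetone-water) in eight replicate wells. After five to seven days at 25° C., 14:10 light-dark, percent mortality in each well is scored and the eight wells averaged.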

[2] = tested on: Cabbage Looper (Trichoplusia ni, TRIPNI); assay: Bioassays on Cabbage Looper (CL), 128-well diet tray assay; conditions: Trichoplusia ni; Cabbage Looper; rating class; read-out: CL
Summary of the method: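 Diet tray, 2nd instar, 1–5 larvae/well; 50 μg/cm^2 compound surface-applied (acetone:water 90:10), dried; 8 wells/treatment; 25° C, 14:10 L:D, 5–7 d; % mortality, mean of 8 wells.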

[3] = tested on: Yellow Fever Mosquito (Aedes aegypti, AEDSAE); conditions: Yellow Fever Mosquito; rating class
Summary of the method: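 Rating-scale grades reflect larval mortality scored per well after 3 days at room temperature under non-evaporative lids. Larvae (~1 day old, hatched overnight in liver-powder water) were added to six daughter plates per compound, prepared from a 4000 ppm DMSO stock diluted in 90:10 water/acetone.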

O=C(CC1CC1)Nc1c(F)ccc(NC(=O)c2cc(NC(=O)[C@H]3[C@H](c4ccc(Cl)c(Cl)c4)C3(Cl)Cl)ccc2Cl)c1F [F1417, 2-Chloro-N-(3-(2-cyclopropylacetamido)-2,4-difluorophenyl)-5-((1R,3R)-2,2-dichloro-3-(3,4-dichlorophenyl)cyclopropane-1-carboxamido)benzamide]
pest or weed control at 50 µg/cm2 [1]: 50 to 100%
pest or weed control at 50 µg/cm2 [2]: 50 to 100%
YFM [3]: A (80–100)

O=C(CC(F)(F)F)Nc1c(F)ccc(NC(=O)c2cc(NC(=O)[C@H]3[C@H](c4ccc(Cl)c(Cl)c4)C3(Cl)Cl)ccc2Cl)c1F [F1418, 2-Chloro-5-((1R,3R)-2,2-dichloro-3-(3,4-dichlorophenyl)cyclopropane-1-carboxamido)-N-(2,4-difluoro-3-(3,3,3-trifluoropropanamido)phenyl)benzamide]
pest or weed control at 50 µg/cm2 [1]: 50 to 100%
pest or weed control at 50 µg/cm2 [2]: 50 to 100%
YFM [3]: A (80–100)

CCOCCC(=O)Nc1c(F)ccc(NC(=O)c2cc(NC(=O)[C@H]3[C@H](c4ccc(Cl)c(Cl)c4)C3(Cl)Cl)ccc2Cl)c1F [F1419, 2-Chloro-5-((1R,3R)-2,2-dichloro-3-(3,4-dichlorophenyl)cyclopropane-1-carboxamido)-N-(3-(3-ethoxypropanamido)-2,4-difluorophenyl)benzamide]
pest or weed control at 50 µg/cm2 [1]: 50 to 100%
pest or weed control at 50 µg/cm2 [2]: 50 to 100%
YFM [3]: A (80–100)

O=C(Nc1ccc(F)c(NC(=O)C(F)F)c1F)c1cc(NC(=O)[C@H]2[C@H](c3cc(Cl)c(Cl)c(Cl)c3)C2(Cl)Cl)cc(F)c1F [F1437, 5-((1R,3R)-2,2-Dichloro-3-(3,4,5-trichlorophenyl)cyclopropane-1-carboxamido)-N-(3-(2,2-difluoroacetamido)-2,4-difluorophenyl)-2,3-difluorobenzamide]
pest or weed control at 50 µg/cm2 [1]: 50 to 100%
pest or weed control at 50 µg/cm2 [2]: 50 to 100%
YFM [3]: A (80–100)

O=C(Nc1ccc(F)c(NC(=O)C(F)(F)F)c1F)c1cc(NC(=O)[C@H]2[C@H](c3cc(Cl)c(Cl)c(Cl)c3)C2(Cl)Cl)cc(F)c1F [F1438, 5-((1R,3R)-2,2-Dichloro-3-(3,4,5-trichlorophenyl)cyclopropane-1-carboxamido)-N-(2,4-difluoro-3-(2,2,2-trifluoroacetamido)phenyl)-2,3-difluorobenzamide]
pest or weed control at 50 µg/cm2 [1]: 50 to 100%
pest or weed control at 50 µg/cm2 [2]: 50 to 100%
YFM [3]: A (80–100)

CC(=O)Nc1c(F)ccc(NC(=O)c2cc(NC(=O)[C@H]3[C@H](c4cc(Cl)cc(Cl)c4)C3(Cl)Cl)cc(F)c2F)c1F [F1439, N-(3-Acetamido-2,4-difluorophenyl)-5-((1R,3R)-2,2-dichloro-3-(3,5-dichlorophenyl)cyclopropane-1-carboxamido)-2,3-difluorobenzamide]
pest or weed control at 50 µg/cm2 [1]: 50 to 100%
pest or weed control at 50 µg/cm2 [2]: 50 to 100%
YFM [3]: A (80–100)

O=C(Nc1ccc(F)c(NC(=O)C(F)F)c1F)c1cc(NC(=O)[C@H]2[C@H](c3cc(Cl)cc(Cl)c3)C2(Cl)Cl)cc(F)c1F [F1440, 5-((1R,3R)-2,2-Dichloro-3-(3,5-dichlorophenyl)cyclopropane-1-carboxamido)-N-(3-(2,2-difluoroacetamido)-2,4-difluorophenyl)-2,3-difluorobenzamide]
pest or weed control at 50 µg/cm2 [1]: 50 to 100%
pest or weed control at 50 µg/cm2 [2]: 50 to 100%
YFM [3]: A (80–100)

O=C(Nc1ccc(F)c(NC(=O)C(F)(F)F)c1F)c1cc(NC(=O)[C@H]2[C@H](c3cc(Cl)cc(Cl)c3)C2(Cl)Cl)cc(F)c1F [F1441, 5-((1R,3R)-2,2-Dichloro-3-(3,5-dichlorophenyl)cyclopropane-1-carboxamido)-N-(2,4-difluoro-3-(2,2,2-trifluoroacetamido)phenyl)-2,3-difluorobenzamide]
pest or weed control at 50 µg/cm2 [1]: 50 to 100%
pest or weed control at 50 µg/cm2 [2]: 50 to 100%
YFM [3]: A (80–100)

CC(=O)Nc1c(F)ccc(NC(=O)c2cc(NC(=O)[C@H]3[C@H](c4ccc(Cl)c(Cl)c4)C3(Cl)Cl)cc(F)c2F)c1F [F1442, N-(3-Acetamido-2,4-difluorophenyl)-5-((1R,3R)-2,2-dichloro-3-(3,4-dichlorophenyl)cyclopropane-1-carboxamido)-2,3-difluorobenzamide]
pest or weed control at 50 µg/cm2 [1]: 50 to 100%
pest or weed control at 50 µg/cm2 [2]: 50 to 100%
YFM [3]: A (80–100)

O=C(Nc1ccc(F)c(NC(=O)C(F)F)c1F)c1cc(NC(=O)[C@H]2[C@H](c3ccc(Cl)c(Cl)c3)C2(Cl)Cl)cc(F)c1F [F1443, 5-((1R,3R)-2,2-Dichloro-3-(3,4-dichlorophenyl)cyclopropane-1-carboxamido)-N-(3-(2,2-difluoroacetamido)-2,4-difluorophenyl)-2,3-difluorobenzamide]
pest or weed control at 50 µg/cm2 [1]: 50 to 100%
pest or weed control at 50 µg/cm2 [2]: 50 to 100%
YFM [3]: A (80–100)

O=C(Nc1ccc(F)c(NC(=O)C(F)(F)F)c1F)c1cc(NC(=O)[C@H]2[C@H](c3ccc(Cl)c(Cl)c3)C2(Cl)Cl)cc(F)c1F [F1444, 5-((1R,3R)-2,2-Dichloro-3-(3,4-dichlorophenyl)cyclopropane-1-carboxamido)-N-(2,4-difluoro-3-(2,2,2-trifluoroacetamido)phenyl)-2,3-difluorobenzamide]
pest or weed control at 50 µg/cm2 [1]: 50 to 100%
pest or weed control at 50 µg/cm2 [2]: 50 to 100%
YFM [3]: A (80–100)

O=C(Nc1ccc(F)c(NC(=O)C(F)F)c1F)c1cccc(NC(=O)[C@H]2[C@H](c3ccc(Cl)c(Cl)c3)C2(Cl)Cl)c1 [F1447, 3-((1R,3R)-2,2-Dichloro-3-(3,4-dichlorophenyl)cyclopropane-1-carboxamido)-N-(3-(2,2-difluoroacetamido)-2,4-difluorophenyl)benzamide]
pest or weed control at 50 µg/cm2 [1]: 50 to 100%
pest or weed control at 50 µg/cm2 [2]: 50 to 100%
YFM [3]: A (80–100)

Cc1c(N)cccc1NC(=O)c1cc(NC(=O)[C@H]2[C@H](c3ccc(F)c(C(F)(F)F)c3)C2(Cl)Cl)ccc1Cl [F1448, N-(3-Amino-2-methylphenyl)-2-chloro-5-((1R,3R)-2,2-dichloro-3-(4-fluoro-3-(trifluoromethyl)phenyl)cyclopropane-1-carboxamido)benzamide]
pest or weed control at 50 µg/cm2 [1]: 50 to 100%
pest or weed control at 50 µg/cm2 [2]: 50 to 100%
YFM [3]: A (80–100)

O=C(Nc1ccc(F)c(NC(=O)C(F)(F)C(F)(F)C(F)(F)F)c1F)c1cc(NC(=O)[C@H]2[C@H](c3ccc(F)c(C(F)(F)F)c3)C2(Cl)Cl)ccc1Cl [F1450, 2-Chloro-5-((1R,3R)-2,2-dichloro-3-(4-fluoro-3-(trifluoromethyl)phenyl)cyclopropane-1-carboxamido)-N-(2,4-difluoro-3-(2,2,3,3,4,4,4-heptafluorobutanamido)phenyl)benzamide]
pest or weed control at 50 µg/cm2 [1]: 50 to 100%
pest or weed control at 50 µg/cm2 [2]: 50 to 100%
YFM [3]: A (80–100)

Cc1c(NC(=O)c2cc(NC(=O)[C@H]3[C@H](c4ccc(F)c(C(F)(F)F)c4)C3(Cl)Cl)ccc2Cl)cccc1NC(=O)C(F)(F)F [F1451, 2-Chloro-5-((1R,3R)-2,2-dichloro-3-(4-fluoro-3-(trifluoromethyl)phenyl)cyclopropane-1-carboxamido)-N-(2-methyl-3-(2,2,2-trifluoroacetamido)phenyl)benzamide]
pest or weed control at 50 µg/cm2 [1]: 50 to 100%
pest or weed control at 50 µg/cm2 [2]: 50 to 100%
YFM [3]: A (80–100)

CCN(C(=O)C(F)F)c1c(F)ccc(NC(=O)c2cc(NC(=O)[C@H]3[C@H](c4ccc(F)c(C(F)(F)F)c4)C3(Cl)Cl)ccc2Cl)c1F [F1452, 2-Chloro-5-((1R,3R)-2,2-dichloro-3-(4-fluoro-3-(trifluoromethyl)phenyl)cyclopropane-1-carboxamido)-N-(3-(N-ethyl-2,2-difluoroacetamido)-2,4-difluorophenyl)benzamide]
pest or weed control at 50 µg/cm2 [1]: 50 to 100%
pest or weed control at 50 µg/cm2 [2]: 50 to 100%
YFM [3]: A (80–100)

CC(=O)Nc1ccc(F)c(NC(=O)c2cc(NC(=O)[C@H]3[C@H](c4ccc(F)c(C(F)(F)F)c4)C3(Cl)Cl)ccc2Cl)c1F [F1454, N-(3-Acetamido-2,6-difluorophenyl)-2-chloro-5-((1R,3R)-2,2-dichloro-3-(4-fluoro-3-(trifluoromethyl)phenyl)cyclopropane-1-carboxamido)benzamide]
pest or weed control at 50 µg/cm2 [1]: 50 to 100%
pest or weed control at 50 µg/cm2 [2]: 50 to 100%
YFM [3]: A (80–100)

CN(C(=O)C(F)F)c1c(F)ccc(NC(=O)c2cc(NC(=O)[C@H]3[C@H](c4cc(Cl)c(Cl)c(Cl)c4)C3(Cl)Cl)ccc2Cl)c1F [F1461, 2-Chloro-5-((1R,3R)-2,2-dichloro-3-(3,4,5-trichlorophenyl)cyclopropane-1-carboxamido)-N-(3-(2,2-difluoro-N-methylacetamido)-2,4-difluorophenyl)benzamide]
pest or weed control at 50 µg/cm2 [1]: 50 to 100%
pest or weed control at 50 µg/cm2 [2]: 50 to 100%
YFM [3]: A (80–100)

O=C(Nc1ccccc1)c1c(Cl)ccc(NC(=O)[C@H]2[C@H](c3ccc(F)c(Cl)c3)C2(Cl)Cl)c1F [F1466, 6-Chloro-3-((1R,3R)-2,2-dichloro-3-(3-chloro-4-fluorophenyl)cyclopropane-1-carboxamido)-2-fluoro-N-phenylbenzamide]
pest or weed control at 50 µg/cm2 [1]: 50 to 100%
pest or weed control at 50 µg/cm2 [2]: 50 to 100%
YFM [3]: A (80–100)

O=C(Nc1ccc(F)c(NC(=O)C2CCOC2)c1F)c1cc(NC(=O)[C@H]2[C@H](c3ccc(F)c(C(F)(F)F)c3)C2(Cl)Cl)ccc1Cl (stereo partly drawn) [F1480, N-(3-(2-Chloro-5-((1R,3R)-2,2-dichloro-3-(4-fluoro-3-(trifluoromethyl)phenyl)cyclopropane-1-carboxamido)benzamido)-2,6-difluorophenyl)tetrahydrofuran-3-carboxamide]
pest or weed control at 50 µg/cm2 [1]: 50 to 100%
pest or weed control at 50 µg/cm2 [2]: 50 to 100%
YFM [3]: A (80–100)
